Experimental data: patent US7071220B2, “N-substituted benzothiophenesulfonamide derivatives” (Toa Eiyo Ltd., priority 2000, dated 2006)
Substitutions are numbered along the chain they refer to. Where two headings read alike, the source gives them in different places.

Tests used:
Chymotrypsin = molecular target: T1, Chymotrypsin (Bos taurus, UniProt P00766); assay: Measurement of chymotrypsin inhibitory activity (Suc-Ala-Ala-Pro-Phe-pNA); type: biochemical; conditions: Chymotrypsin Type I-S from bovine pancreas; 30 minutes at 37° C.
T1 construct: Chymotrypsin Type I-S derived from bovine pancreas; purchased SIGMA Type I-S; host or cells: bovine pancreas
Description: (§1) Measurement of Cathepsin G Inhibitory Activity and Chymotrypsin Inhibitory Activity
(§2) Each activity of cathepsin G or chymotrypsin was measured by determining the amount of free p-nitroaniline quantitatively using a synthetic substrate that is colorless and yields colored product upon hydrolysis, by means of a spectrophotometer. Chymotrypsin Type I-S derived from bovine pancreas was purchased from SIGMA. As cathepsin G, the product of Elastin Products Company, Inc. derived from human purulent sputum was used. Suc-Ala-Ala-Pro-Phe-pNA (manufactured by SIGMA) was used as the synthetic substrate. An inhibitory effect of a compound on each enzyme was determined by the following method.
(§3) Each test compound (5 μmol) was weighed in a test tube and dissolved into 2 mL of DMSO. […] Then, 200 μL of 1 mmol/L substrate solution was added to initiate en enzymatic reaction under a temperature of 37° C.
(§4) Based on each inhibitory ratio, IC50 value was calculated.

Cathepsin G = molecular target: T2, Cathepsin G (Homo sapiens, UniProt P08311); assay: Measurement of cathepsin G inhibitory activity (Suc-Ala-Ala-Pro-Phe-pNA); type: biochemical; conditions: cathepsin G from human purulent sputum; 60 minutes at 37° C.
T2 construct: the product of Elastin Products Company, Inc. derived from human purulent sputum was used; purchased Elastin Products Company, Inc; host or cells: human purulent sputum
T2 sequence (P08311 21-244): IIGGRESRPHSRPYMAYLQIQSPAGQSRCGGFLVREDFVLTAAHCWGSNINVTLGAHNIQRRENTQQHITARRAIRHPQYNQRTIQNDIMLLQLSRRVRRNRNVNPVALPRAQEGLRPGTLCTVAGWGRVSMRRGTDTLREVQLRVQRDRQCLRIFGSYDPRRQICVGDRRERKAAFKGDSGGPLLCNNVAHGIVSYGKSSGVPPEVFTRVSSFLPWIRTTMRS
Description: as §1, §2, §3, §4

Human chymase = molecular target: T3, Human chymase (Homo sapiens, UniProt P23946); assay: Measurement of inhibitory activity of human chymase (Ang I substrate, His-Leu/OPT fluorescence)
T3 sequence (P23946 22-247): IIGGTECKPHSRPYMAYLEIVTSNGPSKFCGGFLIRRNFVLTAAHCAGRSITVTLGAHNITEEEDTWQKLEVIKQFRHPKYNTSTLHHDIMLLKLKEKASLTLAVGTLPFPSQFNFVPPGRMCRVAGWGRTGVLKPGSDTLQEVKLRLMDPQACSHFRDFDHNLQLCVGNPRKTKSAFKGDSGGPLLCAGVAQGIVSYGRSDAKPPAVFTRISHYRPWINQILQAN

[1] = test system: rat monocrotaline-induced pulmonary hypertension model; assay: Test in rat monocrotaline-induced pulmonary hypertension model; type: in vivo
Description: Test in Rat Monocrotaline-Induced Pulmonary Hypertension Model
Into 1.2 mL of 1 mol/L hydrochloric acid was dissolved 200 mg of monocrotaline, followed by addition of 5 mL of distilled water. The solution was neutralized with 0.5 mol/L sodium hydroxide, and further diluted with distilled water so as to be 10 mL (20 mg/mL). Moreover, a solution containing the solvent alone without monocrotaline was prepared as Solvent A. A test compound was suspended into olive oil (25 mg/mL). Furthermore, a solution containing no test compound but the solvent alone was prepared as Solvent B.
Monocrotaline (60 mg/kg-body weight) was administrated subcutaneously at the posterior region of neck of five 5-week-old SD male rats. From 3 days before monocrotaline administration to 20 days after the administration, a test compound was administered intraperitoneally twice a day at a dose of 50 mg/kg-body weight. On the next day of the final administration of the test compound, the rats were fixed supinely under anesthetization with intraperitoneal administration of sodium pentobarbital. And then blood pressure was measured with cannula inserted from left carotid artery and systolic pressure at right ventricle was measured with cannula inserted from right […] and introduced into right ventricle, via a pressure transducer by means of a pressure-strain gauge. After slaughter of the animals, the heart was removed and weight of right ventricle, weight of left ventricle and septum, and diameter and medial thickness of pulmonary artery having a diameter within a range of 50 to 150 μm were measured. Moreover, from these measured values, a weight ratio of right ventricle/(left ventricle+septum) and medial thickening ratio {(medial thickness/outer diameter of the blood vessel)×100} were determined. In this regard, a group wherein the rats to which monocrotaline was administered was treated with Solvent B alone in an amount of 2 mL/kg-body weight in the same administration schedule as above was named “Solvent-administered group”. In addition, a group wherein the rats to which Solvent A was administered in an amount of 3 mL/kg-body weight was treated with Solvent B in an amount of 2 mL/kg-body weight was named “Monocrotaline-untreated group”.

Simian chymase = molecular target: T4, Simian chymase (Macaca mulatta, UniProt F6SAJ2); assay: Measurement of inhibitory activity of simian chymase (Ang I substrate, His-Leu/OPT fluorescence); type: biochemical, rhesus monkey
T4 sequence (F6SAJ2 22-247 limits assumed): T3 sequence (P23946 22-247) with F29S, E63K, D159Y, S201L, Q221K, A225G
Description: That is, the activity was measured by reacting free His-Leu formed together with Ang II with o-phthalaldehyde (hereinafter, abbreviated as OPT) to prepare a fluorescent derivative and determining the amount quantitatively by means of a fluorophotometer.
First, 3.6 μmol of each test compound was weighed in a test tube and was dissolved into 3 mL of DMSO. The DMSO solution was diluted 1000-fold with 20 mmol/L Tris-hydrochloric acid buffer solution (pH 8.0) containing 0.01% Triton X-100 and 0.5 mol/L potassium chloride to prepare 1.2×10^−6 mol/L solution, which was successively diluted with the buffer solution to prepare test sample solutions having concentrations of 1.2×10^−6 mol/L to 1.2×10^−9 mol/L. To 500 μL of the test sample solution of each concentration or buffer solution was added 50 μL of an enzyme solution, followed by 10 minutes of pre-incubation at 37° C. Then, 50 μL of 0.1 mmol/L Ang I solution was added to initiate a reaction. Human angiotensin I (manufactured by SIGMA) was employed as Ang I. The enzyme solution to be used for the reaction was adjusted so as to hydrolyze about 60% of substrate under the conditions, and the reaction wherein a buffer solution containing no enzyme was carried out as a blind test. […] Thereafter, the reaction mixture was centrifuged at 4° C. at 3,000 rpm for 10 minutes and 2 mL of 2 mol/L sodium hydroxide and 1 mL of methanol were added to 1 mL of the resulting supernatant. […] The measurement was repeated twice for each sample and blind test. The fluorescence intensity obtained by subtracting the average value at blind test from the average value thereof was determined as chymase activity.
In this regard, an enzymatic reaction using a buffer solution instead of the test sample solution was carried out as a control, and inhibitory ratio of chymase activity was determined as percentage by dividing the difference of subtraction of the activity at the addition of the test compound from the chymase activity at the control by the chymase activity at the control.

[2] = test system: rat cecum-scraped adhesion model; assay: Investigation in rat cecum-scraped adhesion model; type: in vivo; conditions: 2 mL PBS solution 10^−5 mol/L intraperitoneally; 1 week after operation; control 63.6%
Description: Investigation in Rat Cecum-scraped Adhesion Model
Six-week-old SD rats were subjected to midline incision at lower abdominal region under pentobarbital anesthetization (70 mg/kg, intramuscular injection), and the cecum was taken out of the incised part. Two parts of serous membrane of the cecum (about 2 cm^2 each) were rubbed with a cotton swab a hundred times until petechial hemorrhage occurs, followed by dropwise addition of 100 μL of ethanol. The cecum was again set in abdominal cavity, and then, 2 mL of a phosphate buffered saline (hereinafter, abbreviated as PBS, pH 7.4) solution of a test compound (Compound 24 or 70) was added dropwise intraperitoneally, and then the incised part was sutured. The concentration of each test compound solution was 10^−5 mol/L in a control group, PBS alone was added dropwise, followed by a similar treatment. Each group had 11 or 12 rats. After 1 week from the operation, the animals were slaughtered, the abdominal part was re-incised and an adhesion state of the cecum was evaluated according to adhesion scores using the adhesion intensity and adhesion area as indexes. The score values were determined according to the following 5-grade scores. In this connection, adhered region (%) was determined as percentage of total area of the adhered parts relative to the area of the rubbed regions. […]

[3] = test system: canine eye postoperative adhesion model; assay: Investigation in canine eye postoperative adhesion model; type: in vivo, beagle dog; conditions: sponge with saline solution 10^−4 mol/L for 3 minutes; 7 days after operation; 5-grade score 0-4; control 3.67; p<0.05
Description: Investigation in Canine Eye Postoperative Adhesion Model
A beagle dog was anesthetized and each conjunctiva of both eyes thereof was peeled in a size of 10 mm×5 mm under a stereomicroscope. At that time, Tenon was left at conjunctival side and was not left at scleral side. After a sponge immersed in a saline solution of a test compound (Compound 70) was placed at the incised part for 3 minutes, the incised part was put in one stitch with 10-0 nylon thread. The concentration of the test compound solution was 10^−4 mol/L and a saline was used in a control group (6 dogs per each group).
After 7 days from the operation, the animals were slaughtered, the eyeballs were taken out and adhesion was investigated. After the thread used at the stitching in the model preparation was cut, evaluation was carried out by pulling the conjunctiva part with tweezers and scoring the adhesion state. The score values were determined according to the following 5-grade scores, and Mann-Whitney U test was used for analyzing the data.
(§5) 1: Very weak adhesion (film-like adhesion easily releasable)
(§6) 2: Limited adhesion (strong adhesion difficult to release at only one point)
(§7) 3: Wide-range adhesion (strong adhesion difficult to release at several points)
(§8) 4: Very strong adhesion (very strong adhesion impossible to release)

Stability in rat plasma = type: in vitro ADME; conditions: 10 μg/mL, 37° C., 60 minutes, HPLC
Description: Stability of the compounds of the invention in rat plasma was investigated.
Male SD rats (7-week-old) were anesthetized with ether under over-night fasting conditions and, after an abdominal part was incised, blood was collected from aorta abdominalis using a heparinized disposable plastic syringe. The blood was centrifuged under cooling to collect a supernatant plasma. The collected plasma was stored under freezing at −30° C. and was melted before use. After a test compound was dissolved in DMSO, the solution was added to 200 μL of the plasma so as to be 10 μg/mL, followed by incubation at 37° C. After 60 minutes, the mixture was acidified by adding 200 μL of 0.1 mol/L hydrochloric acid, and then extracted twice with 2 mL of ethyl acetate. The resulting organic layer was evaporated to dryness under a nitrogen gas flow and the residue was dissolved into 200 μL of acetonitrile to prepare a sample solution. On the other hand, the test compound was dissolved into 1% acetonitrile solution of DMSO so as to be 10 μg/mL as a control solution. The sample solution and control solution was investigated by high performance liquid chromatography (hereinafter, abbreviated as HPLC). Residual ratio (%) was determined as percentage by dividing the peak area of the sample solution by the peak area of the control solution.
Column: Waters Nova Pack C18 (inner diameter: 3.9 mm, length: 150 mm)
Mobile phase A: acetonitrile/water=10/90
Mobile phase B: acetonitrile/methanol=50/50
Eluent: Mobile phase A-mobile phase B (100/0 to 0/100, linear gradient, 50 minutes)
Amount of injection: 50 μL

hamster adhesion model = assay: Investigation in hamster adhesion model; type: in vivo; conditions: 1 mL saline solution 10^−4 mol/L intraperitoneally; 4 weeks after operation; 5-grade score 0-4; control 2.0; p<0.05
Description: Investigation in Hamster Adhesion Model
Five-week-old female hamster (10 hamsters per each group) was anesthetized by administering intraperitoneally pentobarbital sodium (50 mg/kg) and, after midline incision at abdominal region, the uterus was rubbed with a cotton swab. Thereafter, 1 mL of saline solution of a test compound (Compound 24: 10^−4 mol/L) was added dropwise intraperitoneally, and then the incised part was sutured. On the other hand, as a control, saline alone was added dropwise, followed by a similar treatment.
After 4 weeks from the operation, the animals were slaughtered, the abdominal part was exposed and adhesion was investigated. The adhesion was judged using the following 5-grade scoring system and the data were analyzed according to Mann-Whitney U test.
as §5, §6, §7, §8

[4] = monocrotaline-treated SD male rats, 50 mg/kg intraperitoneally twice a day, 3 days before to 20 days after monocrotaline
[5] = chymase from heart of rhesus monkey, 120 minutes at 37° C., read-out: Simian chymase IC50 value

IC50 (Chymotrypsin) [µM] | IC50 (Cathepsin G) [µM] | IC50 (Human chymase) [µM] | IC50 (Simian chymase; [5]) [µM] | Residual ratio in rat plasma (Stability in rat plasma) [%] | melting point [°C] | SMILES | IC50 (Human chymase; read-out: Human cymase IC50 value, human chymase from silkworms infected with baculovirus, 120 minutes at 37° C.) [µM] | Medial thickening ratio ([1]; (medial thickness/outer diameter of the blood vessel)×100, pulmonary artery 50 to 150 μm, 50 mg/kg intraperitoneally twice a day) | thickening of medial muscular layer (increase of medial thickening ratio) ([1]; monocrotaline-induced pulmonary hypertension, result in words) | Weight ratio of right ventricle/(left ventricle + septum) ([1]; monocrotaline-treated SD male rats, 50 mg/kg intraperitoneally twice a day) | Average blood pressure [1, 4] [mmHg] | Systolic pressure at right ventricle [1, 4] | Weight of right ventricle [1, 4] [mg] | IC50 (Simian chymase) [µM] | total percentage of scores 3 and 4 showing severe adhesions [2] [%] | average adhesion score [3] | average adhesion score (hamster adhesion model)
> 1 | > 1 |  |  |  |  | COC(=O)c1ccc(NS(=O)(=O)c2sc3ccc(Cl)cc3c2C)c(OC)c1 [Compound 7, Methyl 4-(5-chloro-3-methylbenzo[b]thiophene-2-sulfonylamino)-3-methoxybenzoate] |  |  |  |  |  |  |  |  | 33.3 |  | 
> 10 | > 10 | 0.007 | 0.0004 |  |  | Cc1c(S(=O)(=O)Nc2ccc(-c3nc(C(=O)O)cs3)cc2S(C)(=O)=O)sc2ccc(F)cc12 [Compound 70, 2-[4-(5-fluoro-3-methylbenzo[b]thiophene-2-sulfonylamino)-3-methanesulfonylphenyl]thiazole-4-carboxylic Acid] |  |  |  |  |  |  |  |  |  | 2.67 | 
> 10 | > 10 | 0.037 | 0.002 | 100 | 207 to 208 | Cc1c(S(=O)(=O)Nc2ccc(-c3nc(C(=O)O)co3)cc2S(C)(=O)=O)sc2ccc(F)cc12 [Compound 24, 2-[4-(5-fluoro-3-methylbenzo[b]thiophene-2-sulfonylamino)-3-methanesulfonylphenyl]oxazole-4-carboxylic acid] |  |  |  |  |  |  |  |  | 41.7 |  | 0.9

SMILES | IC50 (Chymotrypsin) [µM] | IC50 (Cathepsin G) [µM] | IC50 (Human chymase) [µM] | IC50 (Simian chymase; [5]) [µM] | Residual ratio in rat plasma (Stability in rat plasma) [%] | melting point [°C] | IC50 (Human chymase; read-out: Human cymase IC50 value, human chymase from silkworms infected with baculovirus, 120 minutes at 37° C.) [µM] | Medial thickening ratio ([1]; (medial thickness/outer diameter of the blood vessel)×100, pulmonary artery 50 to 150 μm, 50 mg/kg intraperitoneally twice a day) | thickening of medial muscular layer (increase of medial thickening ratio) ([1]; monocrotaline-induced pulmonary hypertension, result in words) | Weight ratio of right ventricle/(left ventricle + septum) ([1]; monocrotaline-treated SD male rats, 50 mg/kg intraperitoneally twice a day) | Average blood pressure [1, 4] [mmHg] | Systolic pressure at right ventricle [1, 4] | Weight of right ventricle [1, 4] [mg] | IC50 (Simian chymase) [µM] | total percentage of scores 3 and 4 showing severe adhesions [2] [%] | average adhesion score [3] | average adhesion score (hamster adhesion model)
COC(=O)c1ccc(NS(=O)(=O)c2sc3ccc(F)cc3c2C)c(S(C)(=O)=O)c1 [Compound 17, methyl 4-(5-fluoro-3-methylbenzo[b]thiophene-2-sulfonylamino)-3-methanesulfonylbenzoate] | > 10 | > 10 |  |  |  |  | 0.056 | 10.55 ± 1.80 | suppressed | 0.39 ± 0.04 | 111 ± 19 | 57 ± 11 | 233 ± 24 | 0.009 |  |  | 
